Experimental data published in ChEMBL document CHEMBL1201862, “PubChem BioAssay data set” (2004).
Calls of active or inactive are those of the source.

How the values were obtained:
[1] = target: T1, Orexin/Hypocretin receptor type 1 (Homo sapiens, UniProt O43613); assay: (§1) Fluorescence-based cell-based high throughput dose response assay for antagonists of the orexin 1 receptor (OX1R; HCRTR1). [Related pubchem assays (depositor defined):AID434989, AID435008, AID463079, AID485270, AID492963, AID492964, AID492965, AID493232, AID504717, AID504718]; type: functional
T1 sequence (O43613 whole entry): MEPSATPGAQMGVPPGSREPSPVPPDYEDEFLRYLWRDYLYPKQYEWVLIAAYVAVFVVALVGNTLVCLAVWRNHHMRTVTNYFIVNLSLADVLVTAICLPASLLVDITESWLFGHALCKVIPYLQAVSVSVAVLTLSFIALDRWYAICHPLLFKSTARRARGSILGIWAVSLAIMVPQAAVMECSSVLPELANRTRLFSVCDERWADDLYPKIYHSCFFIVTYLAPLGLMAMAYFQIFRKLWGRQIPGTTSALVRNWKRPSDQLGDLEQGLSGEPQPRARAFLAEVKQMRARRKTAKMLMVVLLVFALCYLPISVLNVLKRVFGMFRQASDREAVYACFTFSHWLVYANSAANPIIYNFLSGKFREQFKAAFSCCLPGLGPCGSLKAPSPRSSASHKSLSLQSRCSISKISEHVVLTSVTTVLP

[2] = target: T1, Orexin/Hypocretin receptor type 1; assay: as §1, with “Homogeneous Time Resolved Fluorescence (HTRF)-based” for “Fluorescence-based”; type: functional
[3] = HEp-2 cell cytotoxicity, dose response, cytotoxicity control for RSV inhibitor project, HTS (AID 2410); type: functional; conditions: human respiratory syncytial virus
[4] = target: T2, Orexin receptor type 2 (Homo sapiens, UniProt O43614); assay: Counterscreen assay for antagonists of the orexin 1 receptor (OX1R; HCRTR1): Fluorescence-based cell-based dose response assay for antagonists of the orexin 2 receptor (OX2R; HCRTR2), run by assay provider.; type: functional
T2 sequence (O43614 whole entry): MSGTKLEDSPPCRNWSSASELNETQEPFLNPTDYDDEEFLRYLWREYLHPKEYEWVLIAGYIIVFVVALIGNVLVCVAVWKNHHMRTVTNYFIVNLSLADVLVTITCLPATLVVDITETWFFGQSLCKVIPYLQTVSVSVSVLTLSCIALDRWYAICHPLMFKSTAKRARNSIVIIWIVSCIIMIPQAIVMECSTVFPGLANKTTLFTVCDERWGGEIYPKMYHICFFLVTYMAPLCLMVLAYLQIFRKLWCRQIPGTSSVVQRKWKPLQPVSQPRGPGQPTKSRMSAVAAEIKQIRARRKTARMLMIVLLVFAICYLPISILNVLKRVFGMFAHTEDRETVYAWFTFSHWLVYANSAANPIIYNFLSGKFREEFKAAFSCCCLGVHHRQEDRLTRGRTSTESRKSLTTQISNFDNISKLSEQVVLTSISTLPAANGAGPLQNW

[5] = (§2) Counterscreen for antagonists of the orexin 1 receptor (OX1R; HCRTR1): Fluorescence-based cell-based high throughput dose response assay to identify antagonists of the parental CHO cell line. [Related pubchem assays (depositor defined):AID434989, AID435008, AID463079, AID485270, AID492963, AID492964, AID492965, AID493232, AID504699, AID504701]; type: functional
[6] = target: T2, Orexin receptor type 2; assay: Counterscreen assay for antagonists of the orexin 1 receptor (OX1R; HCRTR1): Homogeneous Time Resolved Fluorescence (HTRF)-based cell-based dose response assay for antagonists of the orexin 2 receptor (OX2R; HCRTR2), run by assay provider.; type: functional
[7] = cells
[8] = system: CHO-K1; assay: as §2, with “Homogeneous time resolved fluorescence (HTRF)-based” for “Fluorescence-based”, “cell-based” for “cell-based high throughput”, “CHO-K1” for “CHO”; type: functional; conditions: Cricetulus griseus;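 note: potency for inhibition of ATP-stimulated IP1 production as antagonists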
[9] = target: T3, High affinity choline transporter 1 (Homo sapiens, UniProt Q9GZV3); assay: CHT inhibitors, dose response, cell-based, 10-point CRC, membrane potential dye (AID 588401); type: functional;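 note: membrane potential dye fluorescence of choline-evoked depolarization via CHT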
T3 sequence (Q9GZV3 whole entry): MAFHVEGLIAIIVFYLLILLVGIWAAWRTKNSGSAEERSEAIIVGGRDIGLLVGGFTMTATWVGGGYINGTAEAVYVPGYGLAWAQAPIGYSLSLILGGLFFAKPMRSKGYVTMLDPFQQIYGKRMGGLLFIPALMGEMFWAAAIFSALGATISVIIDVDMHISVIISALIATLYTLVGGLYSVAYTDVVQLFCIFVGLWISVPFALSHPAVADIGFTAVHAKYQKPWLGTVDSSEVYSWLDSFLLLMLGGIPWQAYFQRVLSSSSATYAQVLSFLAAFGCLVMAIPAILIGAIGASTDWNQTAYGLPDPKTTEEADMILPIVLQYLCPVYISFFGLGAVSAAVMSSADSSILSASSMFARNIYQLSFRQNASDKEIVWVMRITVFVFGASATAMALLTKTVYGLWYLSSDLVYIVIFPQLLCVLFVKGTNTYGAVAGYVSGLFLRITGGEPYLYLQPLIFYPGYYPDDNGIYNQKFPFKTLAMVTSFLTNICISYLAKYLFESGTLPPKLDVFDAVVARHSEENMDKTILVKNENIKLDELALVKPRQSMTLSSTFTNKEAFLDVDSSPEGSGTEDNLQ

[10] = target: T3, High affinity choline transporter 1; assay: CHT inhibitors, dose response, cell-based, 5-point CRC, membrane potential dye (AID 504840); type: functional
[11] = target: T4, Sentrin-specific protease 6 (Homo sapiens, UniProt Q9GZR1); assay: SAR Analysis of small molecule inhibitors of Sentrin-specific protease 6 (SENP6) using a Luminescent assay. [Related pubchem assays (depositor defined):AID2582, AID2599]; type: functional
T4 sequence (Q9GZR1 whole entry): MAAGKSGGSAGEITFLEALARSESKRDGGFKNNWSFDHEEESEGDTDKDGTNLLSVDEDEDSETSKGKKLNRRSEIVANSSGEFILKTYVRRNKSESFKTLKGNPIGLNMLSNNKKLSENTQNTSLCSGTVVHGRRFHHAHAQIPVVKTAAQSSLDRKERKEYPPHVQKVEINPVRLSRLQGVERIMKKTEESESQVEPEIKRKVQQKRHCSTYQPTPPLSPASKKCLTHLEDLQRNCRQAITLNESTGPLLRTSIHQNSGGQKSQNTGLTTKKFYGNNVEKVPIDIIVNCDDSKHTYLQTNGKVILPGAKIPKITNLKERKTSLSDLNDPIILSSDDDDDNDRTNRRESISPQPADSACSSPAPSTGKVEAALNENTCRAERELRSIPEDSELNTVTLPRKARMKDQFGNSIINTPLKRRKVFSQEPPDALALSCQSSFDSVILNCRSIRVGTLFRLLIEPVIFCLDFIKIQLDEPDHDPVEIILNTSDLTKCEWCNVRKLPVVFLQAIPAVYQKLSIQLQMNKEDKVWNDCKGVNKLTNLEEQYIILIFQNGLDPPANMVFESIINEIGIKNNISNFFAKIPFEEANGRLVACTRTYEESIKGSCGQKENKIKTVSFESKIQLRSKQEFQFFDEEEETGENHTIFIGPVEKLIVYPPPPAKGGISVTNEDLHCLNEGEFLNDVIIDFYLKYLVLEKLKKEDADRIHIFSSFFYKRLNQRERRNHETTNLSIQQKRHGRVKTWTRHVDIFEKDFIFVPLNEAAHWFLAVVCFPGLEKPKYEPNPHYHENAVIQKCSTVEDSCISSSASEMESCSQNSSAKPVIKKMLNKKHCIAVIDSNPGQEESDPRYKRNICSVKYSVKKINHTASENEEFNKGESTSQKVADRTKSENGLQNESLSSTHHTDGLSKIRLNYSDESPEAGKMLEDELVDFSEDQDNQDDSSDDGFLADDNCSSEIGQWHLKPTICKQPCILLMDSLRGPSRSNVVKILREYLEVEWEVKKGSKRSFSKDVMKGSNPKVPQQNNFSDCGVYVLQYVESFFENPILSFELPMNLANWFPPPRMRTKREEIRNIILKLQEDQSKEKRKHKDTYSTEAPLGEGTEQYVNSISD

[12] = target: T5, Sentrin-specific protease 7 (Homo sapiens, UniProt Q9BQF6); assay: SENP7 protease inhibitors, SAR follow-up, biochemical, luminescence (AID 504497); type: functional
T5 sequence (Q9BQF6 whole entry): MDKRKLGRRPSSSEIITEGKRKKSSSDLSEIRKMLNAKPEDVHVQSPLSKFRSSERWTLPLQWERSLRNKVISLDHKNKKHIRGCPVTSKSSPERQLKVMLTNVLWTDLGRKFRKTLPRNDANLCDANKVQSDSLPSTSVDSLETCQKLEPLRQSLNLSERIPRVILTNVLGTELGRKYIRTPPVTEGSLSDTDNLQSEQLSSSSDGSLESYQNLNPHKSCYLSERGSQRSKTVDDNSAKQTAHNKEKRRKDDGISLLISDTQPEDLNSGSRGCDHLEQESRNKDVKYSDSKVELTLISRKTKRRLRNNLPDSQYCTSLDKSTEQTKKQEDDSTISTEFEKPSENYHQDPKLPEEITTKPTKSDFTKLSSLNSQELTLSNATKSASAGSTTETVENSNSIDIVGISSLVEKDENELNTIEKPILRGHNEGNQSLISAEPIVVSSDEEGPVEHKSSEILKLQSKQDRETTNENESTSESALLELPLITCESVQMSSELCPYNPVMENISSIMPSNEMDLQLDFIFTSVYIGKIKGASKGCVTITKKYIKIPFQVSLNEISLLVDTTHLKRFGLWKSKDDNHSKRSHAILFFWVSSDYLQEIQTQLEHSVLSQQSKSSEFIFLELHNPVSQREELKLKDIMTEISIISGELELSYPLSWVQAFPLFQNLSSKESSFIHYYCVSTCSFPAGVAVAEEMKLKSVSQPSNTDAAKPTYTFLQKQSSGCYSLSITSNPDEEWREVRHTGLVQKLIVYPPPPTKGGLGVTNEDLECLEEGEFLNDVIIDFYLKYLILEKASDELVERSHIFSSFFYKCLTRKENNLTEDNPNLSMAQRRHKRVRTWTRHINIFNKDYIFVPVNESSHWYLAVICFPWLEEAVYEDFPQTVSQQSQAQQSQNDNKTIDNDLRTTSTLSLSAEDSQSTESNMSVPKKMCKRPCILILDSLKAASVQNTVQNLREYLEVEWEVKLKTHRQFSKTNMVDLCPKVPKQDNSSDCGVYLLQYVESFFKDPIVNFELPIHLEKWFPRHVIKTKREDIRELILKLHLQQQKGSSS

[13] = target: T6, Sentrin-specific protease 8 (Homo sapiens, UniProt Q96LD8); assay: SENP8 protease inhibitors, SAR follow-up, biochemical, luminescence (AID 504501); type: functional
T6 sequence (Q96LD8 whole entry): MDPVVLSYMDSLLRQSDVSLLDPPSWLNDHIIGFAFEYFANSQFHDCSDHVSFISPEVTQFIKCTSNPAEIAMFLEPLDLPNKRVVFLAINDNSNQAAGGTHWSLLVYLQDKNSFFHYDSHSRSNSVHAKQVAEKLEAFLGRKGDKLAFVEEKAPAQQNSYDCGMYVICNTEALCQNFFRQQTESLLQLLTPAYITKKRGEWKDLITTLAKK

[14] = target: T7, Caspase-3 (Homo sapiens, UniProt P42574); assay: SAR Analysis of small molecule inhibitors of Sentrin-specific proteases (SENPs) using a Caspase-3 Selectivity assay. [Related pubchem assays (depositor defined):AID2540, AID2599, AID434973, AID489001]; type: functional
T7 sequence (P42574 whole entry): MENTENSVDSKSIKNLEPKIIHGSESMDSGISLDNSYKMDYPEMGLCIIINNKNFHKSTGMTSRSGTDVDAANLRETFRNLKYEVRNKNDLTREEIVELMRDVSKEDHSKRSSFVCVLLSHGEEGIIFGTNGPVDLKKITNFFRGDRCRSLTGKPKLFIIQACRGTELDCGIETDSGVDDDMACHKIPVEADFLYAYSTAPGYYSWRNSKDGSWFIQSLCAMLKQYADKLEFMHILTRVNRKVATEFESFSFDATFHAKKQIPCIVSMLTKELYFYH

O=C(NC(Cc1c[nH]c2ccccc12)C(=O)N/N=C/c1ccc(Cl)cc1)c1cccs1 (stereo not given)
active: IC50 [1] 8.68 µM | IC50 [2] 3.28 µM | CC50 [3] 14.7 µM | IC50 [7] 10.9 µM
inactive: IC50 [4] 24 µM | IC50 [5] > 49.8 µM | IC50 [6] > 50 µM | IC50 [8] > 66.2 µM

Cc1ccc(C(C)N=C(S)NC2CCCCC2)cc1C (stereo not given)
active: IC50 [9] 3.36 µM | IC50 [10] 8 µM

Cc1nn(-c2ccccc2)c2nc(N)c(C#N)c(-c3ccc(O)c(O)c3)c12
active: IC50 [1] > 5.53 µM | IC50 [2] 9.34 µM | CC50 [3] 17.4 µM
inactive: IC50 [4] > 88.8 µM | IC50 [5] 36.2 µM | IC50 [6] > 50 µM | IC50 [8] > 66.2 µM

O=C(O)c1ccc(N/N=C/c2cn(Cc3ccccc3)c3ccccc23)cc1
inactive: IC50 [11] > 99 µM | IC50 [13] > 99 µM | IC50 [14] > 99 µM
active: IC50 [12] 96.9 µM

CCCC(=O)Nc1ccc(-c2nc3cc(Cl)ccc3s2)cc1
active: IC50 [11] 84.4 µM | IC50 [12] 10.9 µM | IC50 [13] 82.4 µM | IC50 [14] 18.7 µM
